Measured values from paper PMC6271077, “Synthesis, Anticancer and Antibacterial Activity of Salinomycin N-Benzyl Amides” (Molecules, 2014).

What was measured:
[1] = tested on: HL-60, HL-60/vinc, LoVo, LoVo/dx; assay: Antiproliferative assays, all four cancer cell lines (range given); assay type: cell-based; settings: Homo sapiens; range over HL-60, HL-60/vinc, LoVo, LoVo/dx; read-out: IC50 (range over the cancer cell lines)
From the text: (§1) Four human cancer cell lines and one normal cell line were used to evaluate anticancer activity of SAL and its N-benzyl amides: human acute promyelocytic leukemia (HL-60) and its vincristine resistant subline (HL-60/vinc), human colon adenocarcinoma cell lines sensitive (LoVo) and resistant to doxorubicin (LoVo/dx) as well as also normal murine embryonic fibroblast cell line (BALB/3T3). The BALB/3T3 cell line was purchased from the American Type Culture Collection (ATCC Rockville, MD, USA), HL-60 cell line from European Type Culture Collection by courtesy of Professor Spik and Dr Mazurier (Laboratory of Biological Chemistry USTL, Lille, France) and HL-60/vinc, LoVo and LoVo/dx by courtesy of Prof. E. Borowski (Technical University of Gdańsk, Gdańsk, Poland). All the cell lines are maintained in the Institute of Immunology and Experimental Therapy (IIET), Wrocław, Poland.
(§2) Human leukemia cells were cultured in ISCOVE medium (IIET, Wroclaw, Polond) containing 10% fetal bovine serum and 2 mM L-glutamine (Sigma Aldrich) and 1 µg/100 mL […] for HL-60/vinc (Sigma Aldrich). Human colon adenocarcinoma cell lines were cultured in mixture of OptiMEM and RPMI 1640 (1:1) medium (IIET) supplemented with 5% fetal bovine serum (Thermo Fisher Scientific, Waltham, MA, USA), 2 mM L-glutamine, 1 mM sodium pyruvate (Sigma Aldrich) and 10 µg/100 mL doxorubicin for LoVo/dx (Sigma Aldrich). Murine embryonic fibroblast cells were cultured in Dulbecco medium (Gibco, Darmstadt, Germany) supplemented with 10% fetal bovine serum (Thermo Fisher Scientific) and 2 mM L-glutamine (Sigma Aldrich). All culture media contained antibiotics: 100 U/mL penicillin (Sigma Aldrich) and 100 µg/mL streptomycin (Polfa-Tarchomin, City, Poland). All cell lines were cultured during entire experiment in humid atmosphere at 37 °C and 5% CO2.
(§3) Twenty four hours before adding the tested compounds all cell lines were seeded in 96-well plates (Sarstedt, Nümbrecht, Germany) in appropriate media with 10^4 cells per well. All cell lines were exposed to each tested agent at four different concentrations from the range 100 to 0.1 µg/mL for 72 h. The cells were also exposed to the reference drugs: cisplatin (Accord, London, UK) and doxorubicin hydrochloride (Fluka, St. Louis, MO, USA). Additionally, all cell lines were exposed to DMSO (the solvent used for tested compounds, Sigma Aldrich) at the concentrations corresponding to those in the tested agent dilutions. For adherent cells sulphorodamine B assay was performed and MTT assay for leukemia cells.
(§4) After 72 h of incubation with tested compounds the cells were fixed in situ by gently adding of 50 µL per well of cold 50% trichloroacetic acid TCA (Avantor Performance Materials, City, Poland) and were incubated at 4 °C for 1 h. Then the wells were washed four times with water and air-dried. Next, 50 µL of 0.2% solution of sulphorodamine B (Sigma Aldrich) in 1% acetic acid (Avantor Performance Materials) were added to each well and plates were incubated at room temperature for 0.5 h. After incubation time, unbound dye was removed by washing plates four times with 1% acetic acid, whereas the stain bound to cells was solubilized with 150 µL of 10 mM Tris base (Sigma Aldrich). Absorbance of each solution was read at Synergy H4 photometer (BioTek Instruments, Winooski, VT, USA) at 540 nm wavelength.
Proliferation inhibition of leukemia cells by tested compounds was measured by means of MTT assay. […]

HL-60 = assay: Antiproliferative MTT assay, HL-60; assay type: cell-based, human
From the text: as §1, §2, §3
(§5) Proliferation inhibition of leukemia cells by tested compounds was measured by means of MTT assay. Thus, 20 µL of 3-(4,5-dimethylthiazol-2-yl)-2,5-diphenyl tetrazolium bromide solution (Sigma Aldrich) were added to each well and plates were left in cell incubator for 4 h to allow the cells to metabolize yellow MTT to blue formazan. Then, the lysing mixture consisting of 225 mL dimethylformamide, 67.5 g sodium dodecyl sulfate (both from Sigma Aldrich) and 275 mL of distilled water was added in 80 µL volume per well. Plates were incubated for 24 h for the formazan crystals to be released from cells, dissolved and then absorbance of each well was read at Synergy H4 photometer (BioTek Instruments) at 570 nm wavelength.
(§6) Results are presented as mean IC50 (concentration of the tested compound that inhibits cell proliferation by 50%) ± standard deviation. IC50 values were calculated in Cheburator 1.0.2, Dmitry Nevozhay software for each experiment. Compounds at each concentration were tested in triplicates in single experiment and each experiment was repeated at least three times independently. The IR was defined as the ratio of IC50 for a given compound calculated for resistant cell line to that measured for its parental drug sensitive cell line (Table 4).

[2] = tested on: standard and "wild" strains of M. tuberculosis; assay: Tuberculostatic activity, all M. tuberculosis strains (overall); assay type: cell-based; settings: Mycobacterium tuberculosis, H37RV, read-out: MIC (over M. tuberculosis strains)
[3] = tested on: M. tuberculosis standard H37Rv strain; assay: Tuberculostatic activity, test-tube dilution; assay type: cell-based; settings: Mycobacterium tuberculosis, read-out: MIC M. tuberculosis Standard H37Rv Strain
[4] = tested on: M. tuberculosis isoniazid-sensitive strain (spec. 192); assay: Tuberculostatic activity, test-tube dilution; assay type: cell-based; settings: Mycobacterium tuberculosis, read-out: MIC M. tuberculosis Isoniazid-Sensitive Strain
LoVo/dx = assay: Antiproliferative SRB assay, LoVo/dx; assay type: cell-based, human
From the text: as §1, §2, §3, §4, §6

LoVo = assay: Antiproliferative SRB assay, LoVo; assay type: cell-based, human
From the text: as §1, §2, §3, §4, §6

HL-60/vinc = assay: Antiproliferative MTT assay, HL-60/vinc; assay type: cell-based, human
From the text: as §1, §2, §3, §5, §6

## CC[C@H](C(=O)NCc1ccccc1Br)C1CC[C@H](C)C([C@@H](C)[C@H](O)[C@H](C)C(=O)[C@H](CC)C2O[C@]3(C=C[C@@H](O)C4(CC[C@@](C)(C5CC[C@](O)(CC)[C@H](C)O5)O4)O3)[C@H](C)C[C@@H]2C)O1 (some centres unmarked) [Br-o]
[1]
  IC50: 2.32 to 6.84 µM
HL-60; Homo sapiens, HL-60, 72 h, MTT, mean ± SD, NA: not active in concentrations used (up to 100 µg/mL), read-out: IC50 HL-60
  IC50: 3.13 ± 0.71 µM
HL-60; SI = IC50 BALB/3T3 / IC50 HL-60
  SI HL-60: 2.08
[2]
  MIC: > 100 µg/mL
[3]
  MIC: > 100 µg/mL
[4]
  MIC: > 100 µg/mL
LoVo/dx; Homo sapiens, LoVo/DX, 72 h, read-out: IC50 LoVo/dx
  IC50: 2.87 ± 0.29 µM
LoVo/dx; IR = IC50 LoVo/dx / IC50 LoVo
  IR LoVo/DX: 0.79
LoVo/dx; SI = IC50 BALB/3T3 / IC50 LoVo/dx
  SI LoVo/DX: 2.27
LoVo; Homo sapiens, LoVo, 72 h, SRB, mean ± SD, read-out: IC50 LoVo
  IC50: 3.64 ± 0.07 µM
LoVo; SI = IC50 BALB/3T3 / IC50 LoVo
  SI LoVo: 1.79
HL-60/vinc; Homo sapiens, HL60/vinc, 72 h, read-out: IC50 HL-60/vinc
  IC50: 4.8 ± 1.48 µM
HL-60/vinc; IR = IC50 HL-60/vinc / IC50 HL-60
  IR HL-60/vinc: 1.53
HL-60/vinc; SI = IC50 BALB/3T3 / IC50 HL-60/vinc
  SI HL-60/vinc: 1.36
